Assay results from paper PMC12169608, “Peptidomimetic Phenoxymethyl Ketone Warheads as Potent Dual-Mode Inhibitors against SARS-CoV‑2 M^pro and Cathepsin” (Journal of Medicinal Chemistry, 2025).
Converted amounts (≈) assume the structure as drawn. Where two headings read alike, the source gives them in different places.

Legend:
[1] = molecular target: T1, human cathepsin L (hCTSL) (Homo sapiens, UniProt P07711); experiment: hCTSL biochemical assay; settings: for hCTSL inhibition, IC50 range in words: biochemical assay
T1 construct: purchased R&D Systems

[2] = molecular target: mouse cathepsin L (mCTSL) (Mus musculus, UniProt P06797); experiment: mCTSL biochemical assay
physchem [3] = settings: pH 7.4
SARS-CoV-2 = experiment: microbe, parasite or virus in culture; type: cell-based; settings: for EC50: Severe acute respiratory syndrome coronavirus 2, Vero C1008, read-out: SARS-CoV-2 CPE reduction assay pEC50 (converted)
[4] = system: luciferase-expressing VSV (ΔG) pseudotyped with Spike from SARS-CoV-2; experiment: microbe, parasite or virus in culture; type: cell-based; settings: Vesicular stomatitis virus, Vero C1008, read-out: Entry reporter assay pEC50 (converted)
[5] = molecular target: human cathepsin B (hCTSB) (Homo sapiens, UniProt P07858); experiment: hCTSB biochemical assay
in vitro [6] = settings: mouse, hepatocytes, CLint (mouse hepatocytes)
physchem [7] = settings: pH 7.4; remark: listed apart in the source
in vitro [8] = settings: African green monkey
SARS-CoV-2 M^pro = SARS-CoV-2 M^pro (Severe acute respiratory syndrome coronavirus 2, UniProt P0DTD1); experiment: biochemical; type: biochemical; settings: for IC50: read-out: M^pro biochemical assay pIC50 (converted); for M^pro inhibition, IC50 range in words: biochemical assay
[9] = microsomes, 10 µM, pH 7.4
[10] = 3 h, 2 µM
in vitro [11] = settings: mouse, plasma, mouse plasma protein binding
[12] = read-out: pIC50 (mouse CTSL) (converted)

Sequence of mouse cathepsin L (mCTSL) (P06797 114-334): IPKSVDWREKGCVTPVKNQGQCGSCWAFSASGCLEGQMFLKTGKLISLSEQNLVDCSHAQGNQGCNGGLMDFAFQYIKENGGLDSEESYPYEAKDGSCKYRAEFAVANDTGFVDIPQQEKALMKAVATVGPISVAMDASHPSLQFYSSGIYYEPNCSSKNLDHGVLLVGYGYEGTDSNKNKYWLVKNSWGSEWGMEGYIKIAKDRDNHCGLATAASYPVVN
T1 sequence (P07711 114-333): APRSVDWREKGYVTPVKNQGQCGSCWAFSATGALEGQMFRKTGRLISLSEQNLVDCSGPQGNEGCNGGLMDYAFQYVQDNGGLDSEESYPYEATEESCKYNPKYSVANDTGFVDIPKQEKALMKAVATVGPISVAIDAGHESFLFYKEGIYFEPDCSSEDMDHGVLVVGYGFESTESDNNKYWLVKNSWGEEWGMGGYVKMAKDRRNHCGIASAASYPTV

| SMILES | hCTSL biochemical assay pIC50 [1] | IC50 [2, 12] | logD at 1 h (physchem [3]) | EC50 (SARS-CoV-2) | EC50 [4] | hCTSB biochemical assay pIC50 [5] | hepatocyte CLint at 2 h, 2 µM (in vitro [6]) | solubility kinetic at 24 h (physchem [7]) | CC50 (in vitro [8]) | IC50 (SARS-CoV-2 M^pro) | mouse plasma protein binding, fraction bound (Fb) [10] | fraction unbound at 3 h, 2 µM (in vitro [11]; fraction bound (Fb)) | fraction unbound at 3 h, 2 µM (in vitro [11]; fraction unbound (Fu)) | other results |
| --- | --- | --- | --- | --- | --- | --- | --- | --- | --- | --- | --- | --- | --- | --- |
| COc1cccc2[nH]c(C(=O)N[C@@H](Cc3cccc(F)c3)C(=O)N[C@@H](C[C@@H]3CC(=O)NC3=O)C(=O)COc3c(F)c(F)c(C(C)(C)O)c(F)c3F)cc12 [compound 11] | 7.95 | 316 nM | 2.03 | 759 nM | 8910 nM | 5.88 | 124 µL/min/1e6 cells | 0.88 µM (≈ 0.655 µg/mL) | > 5010 nM | 6.76 nM | – | – | – | fold less active than 1 in the SARS-CoV-2 CPE reduction assay (SARS-CoV-2): ~6 fold |
| COc1cccc2[nH]c(C(=O)N[C@H](Cc3cccc(F)c3)C(=O)N[C@@H](C[C@@H]3CCNC3=O)C(=O)COc3c(F)c(F)c(CO)c(F)c3F)cc12 [compound 2, N-((R)-3-(3-Fluorophenyl)-1-oxo-1-(((S)-3-oxo-1-((S)-2-oxopyrrolidin-3-yl)-4-(2,3,5,6-tetrafluoro-4-(hydroxymethyl)phenoxy)butan-2-yl)amino)propan-2-yl)-4-methoxy-1H-indole-2-carboxamide] | 4.67 | 13500 nM | – | 21900 nM | > 50100 nM | 5.14 | – | – | > 74100 nM | 4270 nM | – | – | – | hCTSL inhibition, IC50 range in words [1]: only micromolar inhibition; fold less active than 1 in the SARS-CoV-2 CPE reduction assay (SARS-CoV-2): ~169 fold; M^pro inhibition, IC50 range in words (SARS-CoV-2 M^pro): only micromolar inhibition |
| COc1cccc2[nH]c(C(=O)N[C@@H](Cc3cccc(F)c3)C(=O)N[C@@H](C[C@@H]3CC(=O)NC3=O)C(=O)COc3c(F)c(F)c(CO)c(F)c3F)cc12 [compound 6, N-((S)-1-(((S)-1-((R)-2,5-Dioxopyrrolidin-3-yl)-3-oxo-4-(2,3,5,6-tetrafluoro-4-(hydroxymethyl)phenoxy)butan-2-yl)amino)-3-(3-fluorophenyl)-1-oxopropan-2-yl)-4-methoxy-1H-indole-2-carboxamide] | 7.89 | 97.7 nM | 3.08 | 1910 nM | – | 6.55 | 156 µL/min/1e6 cells | 20.9 µM (≈ 15 µg/mL) | > 25100 nM | 6.03 nM | – | – | – | Peak area (%) by LCMS, mouse liver microsomal stability assay of 1 ([9]; 0 h): 0%; Peak area (%) by LCMS, mouse liver microsomal stability assay of 1 ([9]; 5 min): 2.5%; Peak area (%) by LCMS, mouse liver microsomal stability assay of 1 ([9]; 0.25 h): 10.2%; Peak area (%) by LCMS, mouse liver microsomal stability assay of 1 ([9]; 0.5 h): 19.2%; Peak area (%) by LCMS, mouse liver microsomal stability assay of 1 ([9]; 0.75 h): 23.2%; Peak area (%) by LCMS, mouse liver microsomal stability assay of 1 ([9]; 1 h): 24.9% |
| CCCCCCCCCCCCCCCC(=O)N[C@@H](Cc1cccc(F)c1)C(=O)N[C@@H](C[C@@H]1CCNC1=O)C(=O)COc1c(F)c(F)c(CO)c(F)c1F [compound 4, N-((S)-3-(3-Fluorophenyl)-1-oxo-1-(((S)-3-oxo-1-((S)-2-oxopyrrolidin-3-yl)-4-(2,3,5,6-tetrafluoro-4-(hydroxymethyl)phenoxy)butan-2-yl)amino)propan-2-yl)palmitamide] | < 4.30 | 10500 nM | – | 2240 nM | 5620 nM | 5.11 | 9.31 µL/min/1e6 cells | – | > 25100 nM | 3800 nM | – | – | – | hCTSL inhibition, IC50 range in words [1]: only micromolar inhibition; logD (physchem [3]): > 3.5; M^pro inhibition, IC50 range in words (SARS-CoV-2 M^pro): only micromolar inhibition |
| COc1cccc2[nH]c(C(=O)N[C@@H](Cc3cccc(F)c3)C(=O)N[C@@H](C[C@@H]3CC(=O)NC3=O)C(=O)COc3c(F)c(F)c(C(C)O)c(F)c3F)cc12 (stereo partly drawn) [compound 9, N-((2S)-1-(((2S)-1-((R)-2,5-Dioxopyrrolidin-3-yl)-3-oxo-4-(2,3,5,6-tetrafluoro-4-(1-hydroxyethyl)phenoxy)butan-2-yl)amino)-3-(3-fluorophenyl)-1-oxopropan-2-yl)-4-methoxy-1H-indole-2-carboxamide] | 7.65 | 158 nM | 2.6 | 1200 nM | – | 6.09 | 134 µL/min/1e6 cells | 6.33 µM (≈ 4.62 µg/mL) | > 10000 nM | 5.5 nM | – | – | – | – |
| COc1cccc2[nH]c(C(=O)N[C@@H](Cc3cccc(F)c3)C(=O)N[C@@H](C[C@@H]3CCNC3=O)C(=O)COc3c(F)c(F)cc(F)c3F)cc12 [compound 15, reference compound] | 7.39 | 603 nM | 2.99 | 39.8 nM | – | 5.46 | 240 µL/min/1e6 cells | 1.4 µM (≈ 0.942 µg/mL) | > 1260 nM | 5.89 nM | 99.57% | 0.0043 | 0.0043 | selectivity for M^pro over hCTSL (SARS-CoV-2 M^pro; biochemical assays): ~7 fold |
| CCCCCCCC(=O)N[C@@H](Cc1cccc(F)c1)C(=O)N[C@@H](C[C@@H]1CCNC1=O)C(=O)COc1c(F)c(F)c(CO)c(F)c1F [compound 3, N-((S)-3-(3-Fluorophenyl)-1-oxo-1-(((S)-3-oxo-1-((S)-2-oxopyrrolidin-3-yl)-4-(2,3,5,6-tetrafluoro-4-(hydroxymethyl)phenoxy)butan-2-yl)amino)propan-2-yl)octanamide] | 7.39 | 75.9 nM | 2.23 | 70.8 nM | – | 7.92 | 206 µL/min/1e6 cells | – | > 501 nM | 11.5 nM | 99.59% | 0.0041 | 0.0041 | – |
| CC(C)(C)[C@H](NC(=O)C(F)(F)F)C(=O)N1C[C@H]2[C@@H]([C@H]1C(=O)N[C@H](C#N)C[C@@H]1CCNC1=O)C2(C)C [Nirmatrelvir, reference compound] | – | – | – | – | – | – | – | – | – | – | – | – | – | IC50 [2]: > 50100 nM |
| COc1cccc2[nH]c(C(=O)N[C@@H](Cc3cccc(F)c3)C(=O)N[C@@H](C[C@@H]3CCNC3=O)C(=O)COc3c(F)c(F)c(F)c(F)c3F)cc12 [compound 16, reference compound] | 6.98 | 550 nM | 2.95 | 39.8 nM | 676 nM | 5.82 | 154 µL/min/1e6 cells | 4.09 µM (≈ 2.82 µg/mL) | > 251 nM | 6.76 nM | 99.33% | 0.0067 | 0.0067 | selectivity for M^pro over hCTSL (SARS-CoV-2 M^pro): ~16 fold |
